What was measured:
[1] = tested on: SW1 tumors; experiment: Immunofluorescent (AAL) analysis of mouse tumor tissue fucosylation; format: in vivo; conditions: oral L-fuc; SW1 model
Description: In general, paraffin-embedded FFPE tumor tissue sections (or the TMA slide) were melted at 70° C. for 30 min. The slides were further de-paraffinizeded using xylene and rehydrated in serial alcohol washes. The slides were pressure cooked at 15 PSI for 15 min in a 1×DAKO antigen retrieval buffer (Agilent Technologies (Santa Clara, CA)). The tumor sections were subject to two 5-min standing washes in PBS prior to blocking in 1× Carb-Free Blocking Solution (Vector Labs (Burlingame, CA)) for 2-3h. The slides were next washed twice and incubated with indicated lectin and/or antibodies.
For assessment of mouse tumor fucosylation, FFPE tumor sections were immunostained with FITC-conjugated AAL lectin (0.4 μg/mL, Vector Laboratories (Burlingame, CA)) and rabbit anti-Mart1+rabbit anti-S100 (melanoma marker cocktail). The slides were mounted with Vectashield+DAPI (Vector Laboratories (Burlingame, CA)). Four representative microscopy images per tumor were acquired using a Keyence BZ-X710, and images were process and analyzed using FUI (NIH) as follows: melanoma marker-positive regions were assigned as regions of interest (ROI) in which we measured Integrated density of AAL signal. Integrated densities of control tumors were assigned as 1, and Integrated AAL density values of experimental tumors were divided by control to produce relative fold changes and plotted as column charts.

[2] = Mouse models of tumor growth and metastasis, dietary L-fucose supplementation; format: in vivo
[3] = tested on: SW1 tumors; experiment: itIC and splenic flow cytometric profiling, SW1 tumor-bearing C3H/HeN mice; format: in vivo, mouse; conditions: oral L-fuc; SW1 model
Description: (§1) Tumors of SW1 or SM1 melanoma cells from […] or C57BL/6 mice, respectively) were digested using 1× tumor digest buffer (0.5 mg/mL Collagenase I, 0.5 mg/mL Collagenase IV, 0.25 mg/mL Hyalyronidase V, 0.1 mg/mL DNAse I in HBSS (Millipore Sigma (St. Louis, MO)). Tumors were homogenized using the Miltenyi MACs dissociator. Red blood cells were lysed using ACK lysis buffer (Life Technologies, (Grand Island, NY)). Tumor homogenate cells were counted using a standard hemocytometer.
Total TILs were gated first to single cells (based on forward scatter height vs width, followed by side scatter height vs. width). Live cells were gated from the Zombie negative population from the population above. TILs were gated based on splenocyte size from a control spleen. Individual immune subpopulations were sub-gated from the total TIL population using the following staining criteria: CD3^+ for CD3^+ T cells; CD3^+/CD4^+/CD8^− for CD4^+T cells; CD3^+/CD4^−/CD8^+ for CD8^+ T cells, CD11c^+/CD11b^+ for DCs; either NK1.1 (for C57/BL6 mice) or DX5 (for C3H/HeJ) for NK cells; CD11b^+/GR1^+ for MDSC-like cells; and F4/80^+ for macrophages. Single-cell suspensions from tumor and spleen tissue were stained with Live/Dead Zombie NIR (Biolegend, (San Diego, CA)) at 1:1,000 in PBS for 20 min. Cell suspensions were spun down and stained with the following with antibodies at 0.5 μg/ml per antibody: APC anti-mouse CD3, Pacific Blue anti-mouse CD4, BV785 anti-mouse CD8, PerCP anti-mouse CD25, FITC anti-mouse F4/80, PeCy7 anti-mouse CD11c, PE anti-mouse NK1.1 or PE anti-mouse DX5, and PerCP-Cy5.5 anti-mouse CD11b. After staining, the cells were washed and fixed (2% formaldehyde), followed by another wash and flow cytometric analysis. The compensation controls were prepared using 0.5 μg/mL of each antibody with UltraComp eBeads, (ThermoFisher Scientific (Waltham, MA)). All samples were subject to flow cytometric profiling using a LSR Flow Cytometer (BD Biosciences (San Jose, CA)) and analysis as indicated using FlowJo software (BD Biosciences (San Jose, CA)).

[4] = tested on: SW1 tumors; experiment: DC clustering by CD11c in SW1 tumors from mice treated +/- L-fucose; conditions: mouse, in vivo
[5] = tested on: HLA-DRB1; experiment: Flow cytometric assessment of cell surface fucosylation and HLA-DRB1 in melanoma cells; format: cell-based, human; conditions: 250 μM, 72 h; flow cytometry
Description: Indicated cells were treated for 72 h with DMSO, 250 μM fucosyltransferase inhibitor (FUTi) (Millipore Sigma (St. Louis, MO)), or 250 μM of L-fucose (Biosynth (Oak Terrace, IL)). After 72 h, cells were stained with 0.1 μM PKH26 (Millipore Sigma (St. Louis, MO)) prior to fixation in 4% formaldehyde solution. The cells were stained with anti-HLA-DRB1 and fluorescein AAL, or anti-human or anti-mouse PD-L1 overnight. The following day the cells were washed 3 times prior to adding AlexaFluor 594 donkey anti-rabbit. Cells were washed 3 times and then subject to flow cytometric analyses using a FACSCalibur (BD Biosciences (San Jose, CA)). Samples were analyzed using FlowJo analysis software (BD Biosciences (San Jose, CA)). Median values of DRB1 and AAL were normalized to PKH26 values and statistical analysis was performed using GraphPad Prism.

[6] = tested on: moDCs; experiment: moDC cytokine production, qPCR and immunoblot of signaling pathways; format: cell-based
Source text: To determine if the changes in DC polarization and CD209 expression were associated with differential signaling changes in moDCs we analyzed known suppressive and stimulatory pathways by (FIG. 25A) cytokine production and (FIG. 25B) qPCR. […] (C) To elucidate the mechanism by which L-fucose was repressing immunosuppression in moDCs we preformed immunoblot analysis of several key signaling pathways in moDC activation of cells treated +/−L-fucose and +/−maturation via LPS. Additionally, we identified transcription factors that may play a role in altering the signaling and cytokine profiles of moDC to further validate the changes in immunomodulatory activity we observe.

[7] = tested on: SM1 tumors; experiment: Flow cytometric profiling of tumors and draining lymph nodes, SM1 tumors in C57BL/6 mice fed ± L-fucose and treated ± anti-PD-1 (Table 2); format: in vivo, mouse
Description: as §1
Total TILs were gated first to single cells (based on forward scatter height vs width, followed by side scatter height vs. width). Live cells were gated from the Zombie negative population from the population above. TILs were gated based on splenocyte size from a control spleen. Individual immune subpopulations were sub-gated from the total TIL population using the following staining criteria: CD3^+ for CD3^+ T cells; CD3^+/CD4^+/CD8^− for CD4^+T cells; CD3^+/CD4^−/CD8^+ for CD8^+ T cells, CD11c^+/CD11b^+ for DCs; either NK1.1 (for C57/BL6 mice) or DX5 (for C3H/HeJ) for NK cells; CD11b^+/GR1^+ for MDSC-like cells; and F4/80^+ for macrophages. Single-cell suspensions from tumor and spleen tissue were stained with Live/Dead Zombie NIR (Biolegend, (San Diego, CA)) at 1:1,000 in PBS for 20 min. […]

In the case of `C[C@H](O)[C@@H](O)[C@@H](O)[C@H](O)C=O` [L-fucose], the increased tumor fucosylation [1] is reported as ~2 fold, the “blocks tumor growth and metastasis” value [2] is reported as > 50% and the “CD4+ and CD8+ T cells, most increased subpopulation of total itICs” value [3] is reported as “doubled”. For the same compound, the “increased total itICs” value [3] was 10-50 fold, the splenic lymphocyte profiles [3] was “without altering splenic lymphocyte profiles” and the “DC clustering by CD11c in SW1 tumors” value [4] was “increased DC clustering”. For the same compound, the “cell surface HLA-DRB1” value [5] was “increased”, the cell surface fucosylation [5] was “increased” and the “immunosuppressive signature of DCs” value ([6]; cytokine production, qPCR) was “decreased immunosuppressive signature”. The “iNOS and p65 activation in moDC” value ([6]; immunoblot, +/- LPS maturation) was “decreased iNOS and p65 activation”, the “average # of cDC2 cells” value ([7]; Day 21, lymph nodes) was 13997.11 per 10^6 cells and the “intratumoral CD4+T central and effector memory cells” value ([7]; SM1 model, L-fuc alone) was “increased”.

— patent publication US20260108547A1, “LEVERAGING L-FUCOSE-MEDIATED SIGNALING TO INDUCE MONOCYTE-DERIVED DENDRITIC CELL POLARIZATION” (H. LEE MOFFITT CANCER CENTER AND RESEARCH INSTITUTE, INC., priority 2022, published 2026)
